Assay results: patent US9856279B2 (AGIOS PHARMACEUTICALS, INC, priority 2011, dated 2018)

Tests used:
IDH1 R132H = IDH1 R132H (Homo sapiens, UniProt O75874, R132H); assay: Assay for IDH1 R132H inhibitors (NADPH/aKG, resazurin detection); assay type: biochemical; conditions: enzyme assay of Example 12; read-out: IDH1R132H IC50
How it was run: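 Read-out is resorufin fluorescence (Ex544/Em590) 5 min after adding a 30 μM resazurin detection mix. Before that, mutant enzyme (0.2 μg/ml in its mix) ran 50 min at room temperature with compound, 8 uM NADPH and 2 mM aKG (mix levels) in Tris pH 7.5 with NaCl, MgCl2, BSA.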

HT1080 cells = assay: Cellular assay for IDH1m inhibitors: inhibition of 2-HG production (LC-MS, 48 hours) in HT1080 cells; assay type: cell-based; conditions: Homo sapiens, HT-1080; inhibition of 2-HG production, HT1080 cells; read-out: HT1080 IC50
How it was run: (§1)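 HT1080 or U87MG cells were seeded at 5000/well in DMEM with 10% FBS, incubated overnight, then treated with compounds (0.2% DMSO final) for 48 h. Medium 2-HG was quantified by LC-MS, and IC50 was taken as the concentration reducing 2-HG by 50% versus DMSO control.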

U87MG cells = assay: Cellular assay for IDH1m inhibitors: inhibition of 2-HG production (LC-MS, 48 hours) in U87MG cells; assay type: cell-based; conditions: Homo sapiens, U-87 MG, inhibition of 2-HG production, U87R132H cells; read-out: U87R132H IC50
How it was run: as §1

Chain of IDH1 R132H (O75874 whole entry R132H): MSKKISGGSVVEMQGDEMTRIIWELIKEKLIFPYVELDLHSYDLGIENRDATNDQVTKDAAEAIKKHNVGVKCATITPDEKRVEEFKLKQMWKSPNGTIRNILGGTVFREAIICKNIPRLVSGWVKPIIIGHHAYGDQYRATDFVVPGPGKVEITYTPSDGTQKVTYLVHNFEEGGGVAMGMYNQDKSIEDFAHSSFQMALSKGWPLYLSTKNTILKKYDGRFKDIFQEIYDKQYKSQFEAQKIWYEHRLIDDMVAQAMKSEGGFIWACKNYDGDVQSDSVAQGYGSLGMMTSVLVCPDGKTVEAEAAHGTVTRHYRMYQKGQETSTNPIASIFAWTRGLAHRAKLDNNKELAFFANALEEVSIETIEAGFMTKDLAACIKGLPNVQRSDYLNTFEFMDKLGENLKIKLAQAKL

Structure (SMILES) | IC50 (IDH1 R132H) | IC50 (HT1080 cells) | IC50 (U87MG cells)
C=Cc1cc(-c2cc(C#N)c(N3CCN(C(=O)CO)[C@H](C4CC4)C3)nc2C2CC2)ccn1 [Compound 738, (R)-2-cyclopropyl-6-(3-cyclopropyl-4-(2-hydroxyacetyl)piperazin-1-yl)-2′-vinyl-3,4′-bipyridine-5-carbonitrile] | < 500 nM | < 500 nM | < 500 nM
C=Cc1cc(-c2cc(C#N)c(N3CCN(C(=O)COC)[C@H](C(C)C)C3)nc2C2CC2)c2ccncc2n1 [Compound 741, (R)-6-cyclopropyl-2-(3-isopropyl-4-(2-methoxyacetyl)piperazin-1-yl)-5-(2-vinyl-1,7-naphthyridin-4-yl)nicotinonitrile] | < 500 nM | < 500 nM | < 500 nM
COCCC(=O)N1CCN(c2nc(C3CC3)c(-c3cccc(NC(=O)C(F)F)c3)cc2C#N)C[C@H]1C [Compound 432, (R)—N-(3-(5-cyano-2-cyclopropyl-6-(4-(3-methoxypropanoyl)-3-methylpiperazin-1-yl)pyridin-3-yl)phenyl)-2,2-difluoroacetamide] | 500 to 1000 nM | 1000 to 10000 nM | 1000 to 10000 nM
C=Cc1cnnc(-c2c(C3CC3)nc(N3CCN(C(=O)/C=C/CCO)[C@H](C4CC4)C3)c(C#N)c2C)c1 [Compound 769, (R,E)-6-cyclopropyl-2-(3-cyclopropyl-4-(5-hydroxypent-2-enoyl)piperazin-1-yl)-4-methyl-5-(5-vinylpyridazin-3-yl)nicotinonitrile] | < 500 nM | < 500 nM | < 500 nM
C=Cc1cnc2c(-c3cc(C#N)c(N4CCN(C(=O)CCOC)[C@H](C(C)C)C4)nc3C3CC3)cccc2n1 [Compound 605, (R)-6-cyclopropyl-2-(3-isopropyl-4-(3-methoxypropanoyl)piperazin-1-yl)-5-(2-vinylquinoxalin-5-yl)nicotinonitrile] | < 500 nM | < 500 nM | < 500 nM
COCCC(=O)N1CCN(c2nc(C3CC3)c(-c3cn(C)c(=O)c4ccccc34)cc2C#N)C[C@H]1C [Compound 418, (R)-6-cyclopropyl-2-[4-(3-methoxy-propionyl)-3-methyl-piperazin-1-yl]-5-(2-methyl-1-oxo-1,2-dihydro-isoquinolin-4-yl)-nicotinonitrile] | < 500 nM | < 500 nM | < 500 nM
COCCC(=O)N1CCN(c2nc(C3CC3)c(-c3ccc(CNC(C)=O)cc3)c(C)c2C#N)C[C@H]1C [Compound 340, (R)—N-(4-{5-cyano-2-cyclopropyl-6-[4-(3-methoxy-propionyl)-3-methyl-piperazin-1-yl]-4-methyl-pyridin-3-yl}-benzyl)-acetamide] | < 500 nM | 500 to 1000 nM | 500 to 1000 nM
C=Cc1cnnc(-c2c(C3CC3)nc(N3CCN(C(=O)CCO)[C@H](C4CC4)C3)c(C#N)c2C)c1 [Compound 767, (R)-6-cyclopropyl-2-(3-cyclopropyl-4-(3-hydroxypropanoyl)piperazin-1-yl)-4-methyl-5-(5-vinylpyridazin-3-yl)nicotinonitrile] | < 500 nM | < 500 nM | < 500 nM
C[C@@H]1CN(c2nc(C3CC3)c(-c3cccc4cnccc34)cc2C#N)CCN1C(=O)CC(F)(F)F [Compound 386, (R)-6-cyclopropyl-5-(isoquinolin-5-yl)-2-(3-methyl-4-(3,3,3-trifluoropropanoyl)piperazin-1-yl)nicotinonitrile] | < 500 nM | 1000 to 10000 nM | 500 to 1000 nM
C=CS(=O)(=O)N(c1cccc(-c2c(C3CC3)nc(N3CCN(C(=O)C4CC4)[C@H](C4CC4)C3)c(C#N)c2C)c1)S(=O)(=O)C=C [Compound 463, (R)—N-(3-(5-cyano-6-(4-(cyclopropanecarbonyl)-3-cyclopropylpiperazin-1-yl)-2-cyclopropyl-4-methylpyridin-3-yl)phenyl)-N-(vinylsulfonyl)ethenesulfonamide] | < 500 nM | 1000 to 10000 nM | 1000 to 10000 nM
C=Cc1cnnc(-c2cc(C#N)c(N3CCN(C(=O)COC)[C@H](C4CC4)C3)nc2C2CC2)c1 [Compound 724, (R)-6-cyclopropyl-2-(3-cyclopropyl-4-(2-methoxyacetyl)piperazin-1-yl)-5-(5-vinylpyridazin-3-yl)nicotinonitrile] | < 500 nM | < 500 nM | < 500 nM
N#Cc1cc(-c2cccc3cnccc23)c(C2CC2)nc1N1CCN(C(=O)CC(F)(F)F)[C@H](C2CC2)C1 [Compound 387, (R)-6-cyclopropyl-2-(3-cyclopropyl-4-(3,3,3-trifluoropropanoyl)piperazin-1-yl)-5-(isoquinolin-5-yl)nicotinonitrile] | < 500 nM | < 500 nM | < 500 nM
C=Cc1cc(-c2cc(C#N)c(N3CCN(C(=O)COC)[C@H](C4CC4)C3)nc2C2CC2)c2ccncc2n1 [Compound 717, (R)-6-cyclopropyl-2-(3-cyclopropyl-4-(2-methoxyacetyl)piperazin-1-yl)-5-(2-vinyl-1,7-naphthyridin-4-yl)nicotinonitrile] | < 500 nM | < 500 nM | < 500 nM
COCCC(=O)N1CCN(c2nc(C3CC3)c(-c3ccccc3OC)cc2C#N)C[C@H]1C(C)C [Compound 275, (R)-6-cyclopropyl-2-(3-isopropyl-4-(3-methoxypropanoyl)piperazin-1-yl)-5-(2-methoxyphenyl)nicotinonitrile] | < 500 nM | 1000 to 10000 nM | 1000 to 10000 nM
C=CC(=O)N1CC=C(c2cc(C#N)c(N3CCN(C(=O)C4CC4)[C@H](C)C3)nc2C2CC2)C1 [Compound 612, (R)-5-(1-acryloyl-2,5-dihydro-1H-pyrrol-3-yl)-2-(4-(cyclopropanecarbonyl)-3-methylpiperazin-1-yl)-6-cyclopropylnicotinonitrile] | < 500 nM | < 500 nM | < 500 nM
C=C(F)C(=O)N(C)c1cccc(-c2cc(C#N)c(N3CCN(C(=O)CCOC)[C@H](C)C3)nc2C2CC2)c1 [Compound 453, (R)—N-(3-(5-cyano-2-cyclopropyl-6-(4-(3-methoxypropanoyl)-3-methylpiperazin-1-yl)pyridin-3-yl)phenyl)-2-fluoro-N-methylacrylamide] | < 500 nM | 500 to 1000 nM | < 500 nM
C=Cc1cc(-c2cc(C#N)c(N3CCN(C(=O)CCO)[C@H](C)C3)nc2C2CC2)c2ccncc2n1 [Compound 609, (R)-6-cyclopropyl-2-(4-(3-hydroxypropanoyl)-3-methylpiperazin-1-yl)-5-(2-vinyl-1,7-naphthyridin-4-yl)nicotinonitrile] | < 500 nM | < 500 nM | < 500 nM

The next lines start with the values.

IC50 (IDH1 R132H) | IC50 (HT1080 cells) | IC50 (U87MG cells) | Structure (SMILES)
< 500 nM | < 500 nM | < 500 nM | C=Cc1cc(Nc2cc(C#N)c(N3CCN(C(=O)CCO)[C@H](C(C)C)C3)nc2C2CC2)ccn1 [Compound 754, (R)-6-cyclopropyl-2-(4-(3-hydroxypropanoyl)-3-isopropylpiperazin-1-yl)-5-(2-vinylpyridin-4-ylamino)nicotinonitrile]
< 500 nM | < 500 nM | < 500 nM | C=Cc1cc(-c2cc(C#N)c(N3CCN(C(=O)CCOC)[C@H](C4CC4)C3)nc2C2CC2)ncn1 [Compound 638, (R)-6-cyclopropyl-2-(3-cyclopropyl-4-(3-methoxypropanoyl)piperazin-1-yl)-5-(6-vinylpyrimidin-4-yl)nicotinonitrile]
< 500 nM | < 500 nM | < 500 nM | COCCC(=O)N1CCN(c2nc(C3CC3)c(-c3ccc4nc(N)sc4c3)cc2C#N)C[C@H]1C [Compound 417, (R)-5-(2-amino-benzothiazol-6-yl)-6-cyclopropyl-2-[4-(3-methoxy-propionyl)-3-methyl-piperazin-1-yl]-nicotinonitrile]
< 500 nM | 1000 to 10000 nM | 1000 to 10000 nM | COCCC(=O)N1CCN(c2nc(C3CC3)c(O[C@H](C)c3ccccc3)cc2C#N)C[C@H]1C [Compound 307, 6-cyclopropyl-2-((R)-4-(3-methoxypropanoyl)-3-methylpiperazin-1-yl)-5-((R)-1-phenylethoxy)nicotinonitrile]
< 500 nM | < 500 nM | < 500 nM | C=CC(=O)Nc1ccc(C(C)Oc2cc(C#N)c(N3CCN(C(=O)CCOC)[C@H](C)C3)nc2C2CC2)cc1 (stereo partly drawn) [Compound 389, N-(4-(1-(5-cyano-2-cyclopropyl-6-((R)-4-(3-methoxypropanoyl)-3-methylpiperazin-1-yl)pyridin-3-yloxy)ethyl)phenyl)acrylamide]
< 500 nM | < 500 nM | < 500 nM | C=Cc1cc(COc2cc(C#N)c(N3CCN(C(=O)CCOC)[C@H](C)C3)nc2C2CC2)ccn1 [Compound 703, (R)-6-cyclopropyl-2-(4-(3-methoxypropanoyl)-3-methylpiperazin-1-yl)-5-((2-vinylpyridin-4-yl)methoxy)nicotinonitrile]
< 500 nM | < 500 nM | < 500 nM | C=Cc1cc(-c2cc(C#N)c(N3CCN(C(=O)COCC)[C@H](C)C3)nc2C2CC2)ccn1 [Compound 573, (R)-2-cyclopropyl-6-(4-(2-ethoxyacetyl)-3-methylpiperazin-1-yl)-2′-vinyl-3,4′-bipyridine-5-carbonitrile]
< 500 nM | 1000 to 10000 nM | 1000 to 10000 nM | COCCC(=O)N1CCN(c2nc(C3CC3)c(OCc3ccc(C(=O)OC)cc3)cc2C#N)C[C@H]1C [Compound 293, (R)-methyl 4-((5-cyano-2-cyclopropyl-6-(4-(3-methoxypropanoyl)-3-methylpiperazin-1-yl)pyridin-3-yloxy)methyl)benzoate]
